Tested on: patients with MDD and an inadequate response to an SSRI or SNRI
Experiment: Massachusetts General Hospital Sexual Functioning Index (MGH-SFI), Study ACP-103-042
Type: in vivo, human
Excerpt: “Massachusetts General Hospital Sexual Functioning Index (MGH-SFI)” is described, for instance, in Labbate and Lare, 2001, Psychother Psychosom. 70(4):221-225. This is a patient facing questionnaire that quantifies sexual dysfunction into 5 functional domains (“interest in sex,” “sexual arousal,” “ability to achieve orgasm,” “ability to maintain erection” (males only), and “sexual satisfaction”). Patients rate each item using a 6-point scale ranging from 1 (good function) to 6 (poor function). High scores indicate poor sexual functioning. […] The determination of the subject's status and eligibility for randomization in Stage 2 was made in a double-blind manner. […] Sexual functioning was assessed using the Massachusetts General Hospital Sexual Functioning Index or MGH-SFI (Labbate and Lare, 2001, Psychother Psychosom. 70(4):221-225). This is a patient facing questionnaire that quantifies sexual dysfunction into 5 functional domains (“interest in sex,” “sexual arousal,” “ability to achieve orgasm,” “ability to maintain erection” [malesonly], and “sexual satisfaction”). Patients rate each item using a 6-point scale ranging from 1 (good function) to 6 (poor function). The time frame for this scale is the past month. This scale was administered at baseline and Week 5 in both stages of the study. High scores indicate poor sexual functioning. In ACP-103-042 the mean scores for MGH-SFI at Baseline was calculated over all 5 domains for males and the 4 domains for females. For MGH-SFI (follow-up version) at Study Weeks 5 and 10, the mean was calculated in the same way as MGH-SFI at Baseline. […] Tables 10-27 summarize the detailed data of MGH-SFI individual items of the overall study group (Tables 10-15), the subgroup of age of <=50 (Tables 16-21) and the subgroup of age of >50 (Table 21-26). In Tables 9-26, ANCOVA=analysis of covariance; OC=observed cases; LSM=least squares mean; CI=confidence interval; SD=standard deviation; SE=standard error. Stage 1: Baseline=Study Week 0, Week 5=Study Week 5; Stage 2: Baseline=Study Week 5, Week 5=Study Weeks 10. LSM from the stage-specific ANCOVA analysis with the change from baseline as the outcome, treatment group as a factor, and the corresponding Baseline value as a covariate. 2-sided p-value for treatment difference from the stage-specific ANCOVA analysis. An treatment effect size (Cohen's d) is calculated using the formula: Effect Size=Least Square mean difference between PIM and PBO/SD. The corresponding 95% confidence interval for an effect size is calculated based on the theoretical probability distribution of the effect size. […] Tables 10-15 and 28-38 summarize the detailed data of MGH-SFI individual items of the overall study group (Tables 10-15), the female subgroup (Tables 33-37) and the male subgroup (Table 38-43). An treatment effect size (Cohen's d) is calculated using the formula: Effect Size=Least Square mean difference between PIM and PBO/SD. The corresponding 95% confidence interval for an effect size is calculated based on the theoretical probability distribution of the effect size. In Tables 10-15 and 28-38, ANCOVA=analysis of covariance; OC=observed cases; LSM=least squares mean; CI=confidence interval; SD=standard deviation; SE=standard error. Stage 1: Baseline=Study Week 0, Week 5=Study Week 5; Stage 2: Baseline=Study Week 5, Week 5=Study Weeks 10. LSM from the stage-specific ANCOVA analysis with the change from baseline as the outcome, treatment group as a factor, and the corresponding Baseline value as a covariate. 2-sided p-value for treatment difference from the stage-specific ANCOVA analysis. An treatment effect size (Cohen's d) is calculated using the formula: Effect Size=Least Square mean difference between PIM and PBO/SD. The corresponding 95% confidence interval for an effect size is calculated based on the theoretical probability distribution of the effect size.

[1] = female subgroup, Stage 2, positive = pimavanserin better than placebo
[2] = male subgroup, Stage 1 (Study Week 0 to 5), PIM 34 mg
[3] = male subgroup, Stage 1 (Study Week 5), PIM 34 mg
[4] = male subgroup, Stage 1, PIM 34 mg
[5] = male subgroup, Stage 1, PIM 34 mg vs placebo, change from baseline to Week 5
[6] = male subgroup, Stage 1, PIM 34 mg, Week 5
[7] = male subgroup, Stage 2 (Study Week 5 to 10), PIM 34 mg
[8] = male subgroup, Stage 2 (Study Week 10), PIM 34 mg

Q: Which results are given for `CC(C)COc1ccc(CNC(=O)N(Cc2ccc(F)cc2)C2CCN(C)CC2)cc1` [pimavanserin, N-(4-Fluorophenylmethyl)-N-(1-methylpiperidin-4-yl)-N′-(4-(2-methylpropyloxy)phenylmethyl)carbamide]?
A: MGH-SFI 05: Overall Sexual Satisfaction, Effect Size (Cohen's d) [1]: 0.227; MGH-SFI 06: Overall Improvement Since Last Medication Change, Effect Size (Cohen's d) [1]: 0.167; MGH-SFI 01: Interest in Sex, Change from Baseline to Week 5 Mean (SE) [2]: −0.6 (1.04); MGH-SFI 01: Interest in Sex, Change from Baseline to Week 5 Median [2]: −1.0; MGH-SFI 01: Interest in Sex, Week 5 Mean (SE) [3]: 4.1 (0.63); MGH-SFI 01: Interest in Sex, Week 5 Median [3]: 5.0; MGH-SFI Item 02: Ability to Get Sexually Aroused or Excited, Change from Baseline to Week 5, Mean (SE) [4]: −0.7 (0.61); MGH-SFI Item 02: Ability to Get Sexually Aroused or Excited, Change from Baseline to Week 5, Median [4]: 0.0; MGH-SFI Item 03: Ability to Achieve Orgasm, Change from Baseline to Week 5, Mean (SE) [4]: −0.4 (0.61); MGH-SFI Item 03: Ability to Achieve Orgasm, Change from Baseline to Week 5, Median [4]: 0.0; MGH-SFI Item 04: (Men) Ability to Get and Maintain an Erection, Change from Baseline to Week 5, Mean (SE) [4]: −0.3 (0.78); MGH-SFI Item 04: (Men) Ability to Get and Maintain an Erection, Change from Baseline to Week 5, Median [4]: 0.0; MGH-SFI Item 05: Overall Sexual Satisfaction, Change from Baseline to Week 5, Mean (SE) [4]: −0.6 (0.81); MGH-SFI Item 05: Overall Sexual Satisfaction, Change from Baseline to Week 5, Median [4]: 0.0; MGH-SFI Item 06: Overall Improvement Since Last Medication Change, Effect Size (Cohen's d) (male subgroup, Stage 1, PIM 34 mg vs placebo, Week 5): 0.257; MGH-SFI Item 02: Ability to Get Sexually Aroused or Excited, Effect Size (Cohen's d) [5]: 0.358; MGH-SFI Item 03: Ability to Achieve Orgasm, Effect Size (Cohen's d) [5]: 0.053; MGH-SFI Item 04: (Men) Ability to Get and Maintain an Erection, Effect Size (Cohen's d) [5]: 0.105; MGH-SFI Item 05: Overall Sexual Satisfaction, Effect Size (Cohen's d) [5]: 0.047; MGH-SFI Item 02: Ability to Get Sexually Aroused or Excited, Week 5, Mean (SE) [6]: 3.7 (0.68); MGH-SFI Item 02: Ability to Get Sexually Aroused or Excited, Week 5, Median [6]: 4.0; MGH-SFI Item 03: Ability to Achieve Orgasm, Week 5, Mean (SE) [6]: 4.1 (0.74); MGH-SFI Item 03: Ability to Achieve Orgasm, Week 5, Median [6]: 5.0; MGH-SFI Item 04: (Men) Ability to Get and Maintain an Erection, Week 5, Mean (SE) [6]: 3.9 (0.70); MGH-SFI Item 04: (Men) Ability to Get and Maintain an Erection, Week 5, Median [6]: 3.0; MGH-SFI Item 05: Overall Sexual Satisfaction, Week 5, Mean (SE) [6]: 4.6 (0.69); MGH-SFI Item 05: Overall Sexual Satisfaction, Week 5, Median [6]: 5.0; MGH-SFI Item 06: Overall Improvement Since Last Medication Change, Week 5, Mean (SE) [6]: 3.3 (0.64); MGH-SFI Item 06: Overall Improvement Since Last Medication Change, Week 5, Median [6]: 3.0; MGH-SFI 01: Interest in Sex, Effect Size (Cohen's d) (male subgroup, Stage 1, positive = pimavanserin better than placebo): 0.104; MGH-SFI 01: Interest in Sex, Change from Baseline to Week 5 Mean (SE) [7]: −0.8 (0.32); MGH-SFI 01: Interest in Sex, Change from Baseline to Week 5 Median [7]: −1.0; MGH-SFI 01: Interest in Sex, Week 5 Mean (SE) [8]: 3.6 (0.47); MGH-SFI 01: Interest in Sex, Week 5 Median [8]: 4.0; MGH-SFI Item 02: Ability to Get Sexually Aroused or Excited, Change from Baseline to Week 5, Mean (SE) (male subgroup, Stage 2, PIM 34 mg): −0.6 (0.29)
